Reference: ChEMBL document CHEMBL1157728, “Novel small molecule bradykinin B1 receptor antagonists. Part 2: 5-membered diaminoheterocycles” (Bioorg Med Chem Lett, 2010)
In brackets after ≈: the same amount, converted by molar mass.

Experiments:
[1] = Solubility of the compound; type: physicochemical
B1 bradykinin receptor = target: T1, B1 bradykinin receptor (Homo sapiens, UniProt P46663); test: Antagonist activity at bradykinin B1 receptor in human IMR90 cells pretreated with IL1-beta assessed as inhibition of DAKD-induced calcium mobilization; type: functional, cell-based, IMR-90
T1 sequence (P46663 whole entry): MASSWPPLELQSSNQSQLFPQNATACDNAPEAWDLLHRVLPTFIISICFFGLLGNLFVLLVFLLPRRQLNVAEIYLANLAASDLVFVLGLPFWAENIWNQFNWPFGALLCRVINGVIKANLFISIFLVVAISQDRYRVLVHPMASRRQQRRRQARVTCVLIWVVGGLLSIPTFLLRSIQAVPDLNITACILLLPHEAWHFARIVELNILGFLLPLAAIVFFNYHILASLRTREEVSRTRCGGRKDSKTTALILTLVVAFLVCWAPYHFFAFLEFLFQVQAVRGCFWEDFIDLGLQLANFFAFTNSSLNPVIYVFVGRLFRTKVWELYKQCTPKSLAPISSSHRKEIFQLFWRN

[2] = Solubility in aqueous buffer; type: physicochemical
[3] = Efflux ratio of permeability from basolateral to apical side to apical to basolateral side in human Caco-2 cells; type: ADME, cell-based
[4] = Solubility in water; type: physicochemical
[5] = Metabolic stability in human liver microsomes assessed as compound remaining after 1 hr; type: ADME, Microsome; conditions: read-out: Stability
[6] = Apparent permeability from apical to basolateral side of human Caco-2 cells; type: ADME, cell-based; conditions: read-out: permeability

| SMILES | IC50 (B1 bradykinin receptor) [nM] | further results |
| --- | --- | --- |
| CC(=O)Nc1nonc1NCc1ccc(-c2cc(Cl)cc(F)c2-c2noc(C)n2)cc1F | 7.7 | solubility [1]: 21 µM (≈ 9.68 µg/mL) |
| CC(=O)Nc1nsnc1NCc1ccc(-c2cc(Cl)cc(F)c2-c2noc(C)n2)cc1F | 1.7 | – |
| COc1cc(C(=O)Nn2c(NCc3ccc(-c4cc(Cl)cc(F)c4-c4noc(C)n4)cc3F)nc3ccccc32)on1 | 0.7 | solubility [2]: 14 µM (≈ 8.29 µg/mL); efflux ratio [3]: 7.1 |
| COc1cc(C(=O)Nn2c(NCc3ccc(-c4cc(Cl)cc(F)c4-c4noc(C)n4)cc3F)nc(C)c2C)on1 | 85 | solubility [4]: 40 µM (≈ 22.8 µg/mL) |
| COC(=O)c1c(F)cccc1-c1ccc(CN2CCCC2=O)c(F)c1 | 42000 | – |
| CC(=O)Nn1ccnc1NCc1ccc(-c2cc(Cl)cc(F)c2-c2noc(C)n2)cc1F | 1.6 | – |
| CC(=O)Nn1c(Cl)cnc1NCc1ccc(-c2cc(Cl)cc(F)c2-c2noc(C)n2)cc1F | 0.3 | – |
| COc1cc(C(=O)Nn2ccnc2NCc2ccc(-c3cc(Cl)cc(F)c3-c3noc(C)n3)cc2F)on1 | 1.7 | solubility [4]: 42 µM (≈ 22.8 µg/mL) |
| CC(=O)Nn1c(NCc2ccc(-c3cc(Cl)cc(F)c3-c3noc(C)n3)cc2F)nc(C)c1C | 180 | – |
| COc1cc(C(=O)Nc2nsnc2NCc2ccc(-c3cc(Cl)cc(F)c3-c3noc(C)n3)cc2F)on1 | 0.6 | – |
| COC(=O)c1c(F)cccc1-c1ccc(CNC(C)=O)c(F)c1 | 35000 | – |
| COC(=O)c1c(F)cccc1-c1ccc(CN2Cc3ccccc3C2=O)c(F)c1 | 6100 | – |
| COc1cc(C(=O)Nc2nonc2NCc2ccc(-c3cc(Cl)cc(F)c3-c3noc(C)n3)cc2F)on1 | 1 | solubility [1]: 12 µM (≈ 6.53 µg/mL); remaining at 1 h [5]: 61%; Papp A→B [6]: 48 ×10⁻⁶ cm/s; efflux ratio [3]: 1 |
| COc1cc(C(=O)Nc2cn[nH]c2NCc2ccc(-c3cc(Cl)cc(F)c3-c3noc(C)n3)cc2F)on1 | 3.5 | – |
| CC(=O)Nn1c(NCc2ccc(-c3cc(Cl)cc(F)c3-c3noc(C)n3)cc2F)nc2ccccc21 | 4.6 | solubility [4]: 40 µM (≈ 20.4 µg/mL) |
| COC(=O)c1c(F)cccc1-c1ccc(CNc2nc3ccccc3[nH]2)c(F)c1 | 3500 | – |
